# pIC50: −log10 of the molar value. Where two headings read alike, the source gives them in different places.
# Key:
# [1] = molecular target: T1, N-terminal domain of human Hsp90 (Homo sapiens, UniProt P07900); assay: Isothermal titration calorimetry (ITC), binding to Hsp90 N-terminal domain; conditions: read-out: Kd, nM for Hsp 90
# T1 construct: the N-terminal domain (residue 1-236) of human Hsp90; His6 (N); SUMO (N); made in house; host or cells: E. coli BL21
# Experimental: The sequence encoding the N-terminal domain was amplified and cloned into the pSUMO expression vector (Lifesensors, Malvern, Pa.). The fusion protein of His6-tagged SUMO-Hsp90 N-terminal domain was expressed in E. coli BL21 cells and purified with Ni-NTA resin (Qiagen) and on Superdex-200 column in 20 mM Tris.HCl, pH 7.5 and 500 mM NaCl.
# The PDK2 or Hsp90 N-terminal domain protein was dialyzed against one liter of the dialysis buffer containing 50 mM Tris-Cl, pH 7.5, 50 mM KCl, 1 mM MgCl2, and 0.5 mM β-mercaptoethanol. […] All of the ITC data were initially analyzed by the NITPIC program (32) to construct the baseline, followed by curve-fitting in Origin 7 to obtain binding parameters.
# [2] = Half-life in vitro in hepatic S9 fractions; assay type: in vitro ADME; conditions: data not shown
# PDP1 = molecular target: T2, PDP1 (Homo sapiens, UniProt Q9P0J1); assay: PDP1 activity in vitro; assay type: biochemical; conditions: at up to 1 mM
# T2 sequence (Q9P0J1 72-537): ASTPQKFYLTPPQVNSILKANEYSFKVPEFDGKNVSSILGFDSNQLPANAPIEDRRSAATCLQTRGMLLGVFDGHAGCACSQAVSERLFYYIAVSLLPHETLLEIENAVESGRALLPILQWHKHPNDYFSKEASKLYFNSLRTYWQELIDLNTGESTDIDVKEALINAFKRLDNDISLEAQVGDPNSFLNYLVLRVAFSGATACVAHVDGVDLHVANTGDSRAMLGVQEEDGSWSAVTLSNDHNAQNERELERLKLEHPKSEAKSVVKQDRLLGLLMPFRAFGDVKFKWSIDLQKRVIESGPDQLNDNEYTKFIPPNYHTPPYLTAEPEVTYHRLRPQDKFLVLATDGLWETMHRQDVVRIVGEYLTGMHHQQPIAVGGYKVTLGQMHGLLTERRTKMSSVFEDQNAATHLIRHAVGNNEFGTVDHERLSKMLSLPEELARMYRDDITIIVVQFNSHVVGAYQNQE
# DIO mice = assay: Glucose tolerance test in DIO mice; assay type: in vivo; conditions: 70 mg/kg/day IP for 4 weeks, 1.5 g/kg glucose challenge
# Experimental: Six- to eight-week old C57BL/6J male mice were obtained from the local campus breeding colony at UT Southwestern Medical Center (Dallas, Tex.) and randomized into two groups: vehicle- and PS10-treated. Prior to the treatment, mice were fed with a 60% high-fat diet, which contained 32% saturated and 68% unsaturated fat (catalog number: D12492, Research Diet Inc. New Brunswick, N.J.), for eight to ten weeks to produce DIO animals. PS-10 was dissolved in 100% DMSO and then diluted to make a 10% DMSO aqueous solution containing 17.5% (w/v) (2-hydroxypropyl)-β-cyclodextrin for delivery. Animals were dosed at mid-day by intraperitoneal (IP) injections at 70 mg/kg using 1-ml syringe and 30-gauge needle. The length of the treatment is indicted in each experiment. At 10 h after the last injection, animals were euthanized using carbon dioxide asphyxiation followed by cervical dislocation and dissection. Blood was harvested by cardiac puncture and stored on ice. Acidified citrate dextrose (ACD) was used as an anticoagulant. Immediately after blood collection, heart, liver, kidneys and both hind-leg quadriceps muscles were removed and snap frozen in liquid nitrogen. Average ischemia time before organ harvest was about 2 to 3 min. Blood was centrifuged in an Eppendorf 5415R refrigerated microcentrifuge at 9,300×g for 5 min to isolate plasma, which was subsequently stored at −80° C.
# Mice were fasted for 6 hours after compound treatment. Ten hours after compound administration, 1.5 g/kg of glucose was delivered intraperitoneally to mice. Tail vein serum samples were collected immediately before and 15, 30, 60 and 120 minutes after the glucose challenge. The glucose levels in serum samples were determined by a glucose meter.
# ChREBP = assay: Hepatic nuclear ChREBP protein levels in PDK inhibitor-treated DIO mice; assay type: in vivo; conditions: 40 mg/kg/day by mini-pumps for 5 days
# Text: The antibody (from Santa Cruz) against the 95-kilodalton ChREBP is highly specific; no signal was detected in hepatic nuclear fractions from ChREBP KO mice. The reduced nuclear ChREBP protein levels correlate with curtailed liver-type pyruvate kinase (LPK) (FIG. 11B), the marker glycolytic enzyme tightly regulated by ChREBP^5. The increased PDC flux is indicated by diminished phosphorylation of the decarboxylase/dehydrogenase (E1)-α subunit of this enzyme complex (FIG. 11B); while the expression of this subunit is not affected (not shown). The glucose-sensitive transcription factor ChREBP discovered and cloned by the Uyeda group in 2001 (Yamashita et al., 2001) has emerged as a central regulator of lipogenesis in liver (Uyeda and Repa, 2006; Filhoulaud et al., 2013; Denechaud et al., 2008) and β-cells (Cha-Molstad et al., 2009; Kibbe et al., 2013) at the transcriptional level (Uyeda and Repa, 2006; Filhoulaud et al., 2013; Denechaud et al., 2008). […] Therefore, the inventors propose that increased glucose oxidation through PDC flux lowers hepatic glucose concentrations and attenuates nuclear ChREBP-mediated de novo lipogenesis in liver (FIG. 12A). […]
# mature SREBP-1c = assay: Hepatic nuclear mature SREBP-1c protein level in PDK inhibitor-treated DIO mice; assay type: in vivo; conditions: 40 mg/kg/day by mini-pumps for 5 days
# PDK4 = PDK4 (Homo sapiens, UniProt Q16654); assay: Assay for inhibition of PDK activity, PDK4; assay type: biochemical; set-up: made in house
# Chain of PDK4 (Q16654 whole entry, the tested form may be a part): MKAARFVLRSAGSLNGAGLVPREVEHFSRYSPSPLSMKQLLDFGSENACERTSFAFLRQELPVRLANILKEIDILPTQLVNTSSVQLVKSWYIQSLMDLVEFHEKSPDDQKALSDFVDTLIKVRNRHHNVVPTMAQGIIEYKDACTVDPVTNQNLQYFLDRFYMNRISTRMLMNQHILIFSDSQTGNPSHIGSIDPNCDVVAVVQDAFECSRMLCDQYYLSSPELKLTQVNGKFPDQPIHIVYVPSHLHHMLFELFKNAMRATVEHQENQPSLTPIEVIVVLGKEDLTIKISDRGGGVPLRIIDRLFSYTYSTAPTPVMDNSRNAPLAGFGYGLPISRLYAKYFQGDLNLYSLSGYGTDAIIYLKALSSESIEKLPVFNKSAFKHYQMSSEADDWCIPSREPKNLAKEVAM
# Experimental: Recombinant human PDK2 was expressed and purified as a N terminal His6-tagged SUMO fusion protein with a tobacco-etch-virus protease (TEV) cleavage site in front of the N-terminal PDK2 sequence (26), and was used directly for the activity assay and binding affinity analyses. […] The purified protein was concentrated to 35-40 mg/ml and stored at −80° C. in small aliquots. Recombinant human PDK1, PDK3 and PDK4 were expressed and purified as described previously (26).
# The remaining steps were described previously (26). IC50 values were obtained by the curve fitting of inhibition isotherms using Prism 6 (GraphPad software, Inc.).
# PDC = PDC flux in perfused hearts from DIO mice by hyperpolarized 13C NMR; conditions: single dose 70 mg/kg IP, 8-hr
# Experimental: Metabolism of [1-^13C]pyruvate to [1-^13C]alanine, [1-^13C]lactate, H^13CO3^− and ^13CO2 were detected in real time by ^13C NMR spectra, following the injection of 2 mM HP [1-^13C]pyruvate into perfused heart (FIG. 10A).
structure (smiles),measurement,setting,value
"O=S(=O)(c1ccc(O)cc1O)N1Cc2cc(O)cc(O)c2C1 [PS10, 2-((2,4-dihydroxyphenyl)sulfonyl)isoindoline-4,6-diol]",Kd,[1],47000 nM
same,half-life,[2],> 4 h
same,effect on PDP1 activity in vitro,PDP1,without effect
same,plasma glucose level at 0 min,DIO mice,168 mg/dL
same,plasma glucose level at 30 min,DIO mice,312 mg/dL
same,plasma glucose level at 120 min,DIO mice,163 mg/dL
same,ChREBP protein levels in hepatic nuclear fractions,ChREBP,drastically decreased
same,protein level of nuclear mature SREBP-1c,mature SREBP-1c,unchanged
same,IC50,"PDK4; Table 1, inhibitor 31.6 nM to 1 mM, read-out: IC50, μM for PDK4",0.76 µM
same,pIC50,"PDK4; absence of E2/E3BP core (−), read-out: IC50 for PDK4",6.11
same,cardiac PDC flux in DIO mice,PDC,smaller increase
